Laboratory results: patent publication EP3750892A1, “NOVEL 5-CYCLOPROPYL-FURO[3,4-C]PYRIDINE-3,4(1H,5H)-DIONE 1,1' SUBSTITUTED DERIVATIVES AND THEIR USES” (Yerevan State University, priority 2019, dated 2020)

How the values were obtained:
Assay type in all cases: cell-based
[1] = test system: cellular response to IFN-α; experiment: ISRE-Luc reporter assay: amplification of cellular response to IFN-α; settings: for amplification of cellular response to IFN-α: HEK-293 ISRE-Luc (STING 37 cell line); for amplification of cellular response to IFN-α / pEC50 / EC50: IFN-α 150 IU/mL; for pEC50 / EC50: ISRE-Luc reporter cells, dose-response 0.8 to 150 µM, luciferase after 24 h, pEC50<3.8 = inactive
Method: Cells were cultured at 37°C and 5% CO2 in Dulbecco's modified Eagle's Medium (DMEM; Sigma-Aldrich) containing 10% fetal calf serum (FCS), penicillin and streptomycin. Experiments were performed on HEK-293 cells stably transfected with the ISRE-Luciferase reporter gene (ISRE-Luc), with or without NanoLuc as an additional reporter gene (Lucas-Hourani et al., 2013; Hayek et al., 2019).
Reporter cells were incubated with increasing concentrations of candidates DHODH inhibitors diluted in DMSO in the presence or not of recombinant IFN-α (150 IU/mL). Recombinant IFN-α was from Sigma-Aldrich or PBL Assay Science. Luciferase activity was quantified 24 h later.
To confirm that modulation of IFN-α is related to DHDOH inhibition by compounds of the invention, the same experiments were performed by adding either uridine (pyrimidine derivated nucleoside), dihydroorotate (DHO, the substrate od DHODH in pyrimidine de novo biosynthesis pathway) or orotate (the product of ubiquinone-mediated oxidation of DHO catalysed by DHODH) together with compound of the invention. uridine, orotate, and DHO are all from Sigma Aldrich.
Firefly luciferase expression in culture wells was measured using the Bright-Glo (Promega) or Britelite plus reagents (PerkinElmer), according to the manufacturer's recommendations. For each concentration, three independent experiments were performed.
Compounds were tested for their ability to boost cellular response to IFN-α using ISRE-Luc reporter cells.

[2] = test system: de novo pyrimidine biosynthesis; experiment: Purine (G/A) and pyrimidine (C/U) quantification by HPLC-coupled spectrophotometry in HEK-293 cells; settings: 24 h, 5, 10 or 20 µg/mL
Method: Cells were cultured at 37°C and 5% CO2 in Dulbecco's modified Eagle's Medium (DMEM; Sigma-Aldrich) containing 10% fetal calf serum (FCS), penicillin and streptomycin. Nucleoside/nucleotide quantification in HEK-293 cells was performed as previously described in by Lucas-Hourani et al. (2017). Briefly, cells were plated in 6-well plates at 1x10^6 cells per well and after 24 h, several concentrations of compounds of the invention (diluted in DMSO) or DMSO alone was added.
One day later, cells were washed with PBS and cellular pellets were deproteinized by adding an equal volume of 6% perchloric acid. After 10 min of incubation on ice and clearing of the extracts by centrifugation (13,000 rpm for 10 min at 4°C), supernatants were supplemented with bidistilled water (V/V) and neutralized by the addition of 2 M Na2CO3. Extracts were analyzed by HPLC onto a C18 Supelco 5-µm (250 by 4.6 mm) column (Sigma) at 45°C using a mobile phase delivered at a flow rate of 1 mL/min. Buffer A contained 10 mM tetrabutylammonium hydroxide, 10 mM KH2PO4, and 0.25% MeOH and was adjusted to pH 6.9 with 1 M HCl. Buffer B contained 5.6 mM tetrabutylammonium hydroxide, 50 mM KH2PO4, and 30% MeOH and was neutralized to pH 7.0 with 1 M NaOH. […] Products were monitored spectrophotometrically at 254 nm with a diode array detector (PDA) and quantified by integration of the peak absorbance area. […]

HEK-293 cells = experiment: Cell viability / proliferation assay (CellTiter-Glo); settings: 24, 48 and 72 h of culture
Method: Cells were treated with DMSO or compounds of the invention at different concentrations, and the number of viable cells was determined using the CellTiter-Glo reagent after 24, 48 and 72 h of culture. Cellular viability was determined by quantification of ATP in culture wells using the CellTiter-Glo assay (Promega).
Two independent experiments were performed. Results were analyzed using one-way analysis of variance (ANOVA) with Bonferroni's post hoc test.

[3] = test system: cellular response to IFN-γ; experiment: ISRE-Luc reporter assay: amplification of cellular response to type II IFN; settings: HEK-293 ISRE-Luc, compound 80 µM, recombinant IFN-γ
Method: Reporter system, cell culture and luciferase assay are performed as exposed above. HEK-293 cells with the ISRE-Luc reporter gene were treated with DMSO or compounds of the invention in the absence or presence of recombinant IFN-γ (Figure 4A; Roussel Uclaf or Milteny Biotech, 150 IU/mL).
(§1) The same experiment was performed but using different dilutions ranging from 1/8 to 1/64 of conditioned supernatants from activated PBMCs, instead of recombinant IFN-γ. Human peripheral blood mononuclear cells (PBMC) from one healthy donor were isolated by density centrifugation with Lymphoprep medium (StemCell Technologies) from leucocytes concentrates obtained when plateletpheresis was performed (Etablissement Français du Sang; Paris; France). To activate PBMCs, cells were treated for 24 h with the TLR7/8 ligand R848 at 5 µg/mL (Sigma Aldrich) and supernatants were harvested. R848 is known to induce expression of several cytokines, within which IFN-γ which is found at high levels in PBMC supernatants in comparison with type I IFNs (Table 4). Table 4. Cytokine expression levels in culture supernatants of human PBMC activated with R848.

human PBMC = experiment: Cytokine expression levels in culture supernatants of PBMC activated with R848; settings: PBMC + R848 5 µg/mL, 24 h, supernatant
Method: as §1

With “5'-cyclopropyl-3'H-spiro[cyclohexane-1,1'-furo[3,4-c]pyridine]-3',4(5'H)-dione [Compound 2]” the “amplification of cellular response to IFN-α” value [1] was “amplified”, the pEC50 [1] was 4.4 and the “reversal of amplification of response to IFN-α by uridine, orotate or DHO” value ([1]; compound 80 µM, uridine 125 µM, DHO 3 mM, orotate 3 mM) was “reversed by orotate but not DHO”. The “Pyrimidine (U and C) levels” value [2] was “drop of pyrimidine cellular concentration”, the “proliferation of HEK-293 cells (number of viable cells)” value (HEK-293 cells) was “prevent cell proliferation” and the “Amplification of response to IFN type II” value [3] was “Amplification of response to IFN type II”.

In the case of “5'-cyclopropyl-3'H-spiro[cyclopentane-1,1'-furo[3,4-c]pyridine]-3',4(5'H)-dione [Compound 1]”, the pEC50 [1] is reported as 4.3.

`CC1(c2ccccc2)OC(=O)c2c1ccn(C1CC1)c2=O` (stereo not shown) [Compound 3, 5-cyclopropyl-1-methyl-1-phenylfuro[3,4-c]pyridine-3,4(1H,5H)-dione] was tested, and the “amplification of cellular response to IFN-α” value [1] was “amplified” and the EC50 [1] was 25.1 µM.

For `CC1(CCc2ccccc2)OC(=O)c2c1ccn(C1CC1)c2=O` (stereo not shown) [Compound 4, 5-cyclopropyl-1-methyl-1-phenethylfuro[3,4-c]pyridine-3,4(1H,5H)-dione], the EC50 [1] was 6.31 µM.

Work on `CCOCc1nc2c(N)nc3ccccc3c2n1CC(C)(C)O` [Compound R848] yielded a GM-CSF (human PBMC) of 0.043 ng/mL, an IFN-α2 (human PBMC) of 0.097 ng/mL and an IFN-β (human PBMC) of 0.015 ng/mL. For the same molecule, the IFN-γ (human PBMC) was 4.2 ng/mL, the IFN-λ1 (human PBMC) was 0.016 ng/mL and the IL-1β (human PBMC) was 12 ng/mL. It also gave an IL-6 (human PBMC) of 65 ng/mL, an IL-8 (human PBMC) of 214 ng/mL and an IL-10 (human PBMC) of 0.283 ng/mL. It also gave an IL-12p70 (human PBMC) of 0.009 ng/mL, an IP10 (human PBMC) of 0.028 ng/mL and a TNF-α (human PBMC) of 11 ng/mL.
